In ChEMBL document CHEMBL3414448, “Advances in the discovery of novel antimicrobials targeting the assembly of bacterial cell division protein FtsZ” (Eur J Med Chem, 2015):
Values after ≈ are worked out from the molar mass of the structure shown.

What was measured:
[1] = target: T1, Cell division protein FtsZ (Escherichia coli K-12, UniProt P0A9A6); test: Inhibition of Escherichia coli FtsZ GTPase activity
T1 sequence (P0A9A6 whole entry): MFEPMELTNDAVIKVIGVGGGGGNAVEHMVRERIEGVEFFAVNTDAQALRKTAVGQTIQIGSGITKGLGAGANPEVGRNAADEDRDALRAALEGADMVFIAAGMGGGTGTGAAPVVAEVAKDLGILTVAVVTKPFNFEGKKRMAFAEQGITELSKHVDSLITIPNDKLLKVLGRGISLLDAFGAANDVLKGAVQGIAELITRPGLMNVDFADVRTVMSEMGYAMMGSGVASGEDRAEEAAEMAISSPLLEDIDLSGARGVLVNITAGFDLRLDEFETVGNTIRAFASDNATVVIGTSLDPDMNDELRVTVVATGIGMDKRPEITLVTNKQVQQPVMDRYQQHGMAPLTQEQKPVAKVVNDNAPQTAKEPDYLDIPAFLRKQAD

Bacillus subtilis [2] = test: Antimicrobial activity against Bacillus subtilis; type: functional
Staphylococcus aureus [3] = test: Antimicrobial activity against Staphylococcus aureus; type: functional
[4] = target: T1, Cell division protein FtsZ; test: Inhibition of Escherichia coli FtsZ
Escherichia coli [5] = test: Antimicrobial activity against Escherichia coli; type: functional
Pseudomonas fluorescens = test: Antimicrobial activity against Pseudomonas fluorescens; type: functional
[6] = target: T2, Cell division protein FtsZ (Bacillus subtilis (strain 168), UniProt P17865); test: Binding affinity to Bacillus subtilis FtsZ
T2 sequence (P17865 whole entry): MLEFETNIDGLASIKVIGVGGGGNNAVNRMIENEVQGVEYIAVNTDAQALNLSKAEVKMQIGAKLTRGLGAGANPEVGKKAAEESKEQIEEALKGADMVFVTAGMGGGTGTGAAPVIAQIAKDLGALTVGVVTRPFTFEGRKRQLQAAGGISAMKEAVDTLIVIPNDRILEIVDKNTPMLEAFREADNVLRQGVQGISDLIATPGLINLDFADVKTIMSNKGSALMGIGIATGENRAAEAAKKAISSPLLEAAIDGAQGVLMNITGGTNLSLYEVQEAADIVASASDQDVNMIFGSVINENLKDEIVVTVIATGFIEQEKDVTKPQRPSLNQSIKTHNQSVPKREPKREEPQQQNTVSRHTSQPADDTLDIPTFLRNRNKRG

HeLa = test: Cytotoxicity against human HeLa cells; type: cell-based
Staphylococcus aureus [7] = test: Antimicrobial activity against Staphylococcus aureus UAMS1; type: functional
Staphylococcus aureus [8] = test: Antimicrobial activity against community acquired methicillin-resistant Staphylococcus aureus USA300-LAC; type: functional
[9] = Inhibition of FtsZ (unknown origin) assessed as reduction in enzyme assembly
[10] = Inhibition of FtsZ (unknown origin) assessed as reduction in enzyme GTPase activity
Staphylococcus = test: Antimicrobial activity against Staphylococcus; type: functional
[11] = target: T1, Cell division protein FtsZ; test: Inhibition of Escherichia coli FtsZ polymerization
Bacillus subtilis [12] = test: Antimicrobial activity against Bacillus subtilis relative to control; type: functional
Escherichia coli [13] = test: Antimicrobial activity against Escherichia coli relative to control; type: functional
Staphylococcus aureus [14] = test: Antimicrobial activity against methicillin-resistant Staphylococcus aureus; type: functional
[15] = Half life in staphylococcal growth media
[16] = Half life in 100% filtered mouse serum; type: ADME

`O=C1C[C@@H](c2ccccc2)Oc2c(Cc3cc(Cc4ccccc4O)ccc3O)c(O)c(Cc3cc(Cc4ccccc4O)ccc3O)c(O)c21` showed an IC50 [1] of 8.3 µM, an MIC (Bacillus subtilis [2]) of 1.77 µg/mL (≈ 2.6 µM) and an MIC (Staphylococcus aureus [3]) of 1.16 µg/mL (≈ 1.7 µM).

For `CN(C)CCNc1nc(/C=C/c2ccc(Cl)cc2)nc2cc3ccccc3cc12`, the IC50 [4] was 12 µM.

For `COc1c(OC(C)=O)ccc(/C=N/c2c(C(C)C)cccc2C(C)C)c1[N+](=O)[O-]`, the MIC (Bacillus subtilis [2]) was 6.25 µg/mL (≈ 15.7 µM), the MIC (Escherichia coli [5]) was 6.25 µg/mL (≈ 15.7 µM) and the MIC (Staphylococcus aureus [3]) was 6.25 µg/mL (≈ 15.7 µM). It also gave an MIC (Pseudomonas fluorescens) of 6.25 µg/mL (≈ 15.7 µM).

Compound `O=C1NC(=S)S/C1=C/c1ccc(-c2cccc(C(F)(F)F)c2)o1` has a GI50 (Bacillus subtilis [2]) of 2000 nM, a Kd [6] of 1500 nM and an IC50 (HeLa) of 18.1 µM.

For `COc1cc(C/C=C(/Cl)Cc2cc(O)cc(O)c2)c(OC)cc1Cl`, the IC50 [1] was 37 µM, the MIC (Staphylococcus aureus [7]) was 1 µg/mL (≈ 2.71 µM) and the MIC (Staphylococcus aureus [8]) was 1 µg/mL (≈ 2.71 µM).

Compound `Oc1cc(O)cc(C/C(Cl)=C\Cc2cc(O)c(Cl)cc2O)c1` has an MIC (Staphylococcus aureus [7]) of 1 µg/mL (≈ 2.93 µM) and an MIC (Staphylococcus aureus [8]) of 1 µg/mL (≈ 2.93 µM).

In the case of `COc1ccc2cc3[n+](cc2c1OC)CCc1cc2c(cc1-3)OCO2` [BERBERINE], the IC50 [9] is reported as 10 µM and the IC50 [10] is reported as 16 µM.

Work on `NC(=O)c1c(F)ccc(OCc2nc3cc(Cl)cnc3s2)c1F` yielded an MIC (Staphylococcus) of 0.5 µg/mL (≈ 1.41 µM).

In the case of `O=C/C=C/c1ccccc1` [CINNAMALDEHYDE], the IC50 [1] is reported as 5.81 µM, the IC50 [11] is reported as 6.86 µM and the MIC (Bacillus subtilis [12]) is reported as 500 µg/mL (≈ 3780 µM). It also gave an MIC (Escherichia coli [13]) of 1000 µg/mL (≈ 7570 µM), an MIC (Staphylococcus aureus [14]) of 0.25 µg/mL (≈ 1.89 µM) and an MIC (Bacillus subtilis [2]) of 0.5 µg/mL (≈ 3.78 µM). The MIC (Escherichia coli [5]) was 1 µg/mL (≈ 7.57 µM).

Compound `CN1CCC(C(=O)NC(=O)c2c(F)ccc(OCc3nc4cc(Cl)cnc4s3)c2F)CC1` has a half-life [15] of 492 min and a half-life [16] of 3.4 min.

Compound `CCC(CC)c1cc([C@H]2CN3CC[C@H]2C[C@@H]3CN)nc(-c2ccncc2)n1` has an MIC (Escherichia coli [5]) of 18 µg/mL (≈ 49.2 µM), an MIC (Staphylococcus aureus [3]) of 9 µg/mL (≈ 24.6 µM) and an IC50 [10] of 37.5 µM.

Compound `CCC(CC)c1cc([C@H]2CN3CC[C@H]2C[C@@H]3CNCc2ccco2)nc(-c2ccncc2)n1` has an MIC (Escherichia coli [5]) of 72 µg/mL (≈ 162 µM), an MIC (Staphylococcus aureus [3]) of 12 µg/mL (≈ 26.9 µM) and an IC50 [10] of 55.7 µM.
